Tested on: reporter gene (firefly luciferase) expression in the liver
Assay: Luciferase expression in mouse liver following tail vein injection of mRNA lipid nanoparticles
Format: in vivo
Conditions: increasing concentration of compound I-5 in the lipid nanoparticle
Description: Lipid nanoparticles were formulated with short chain PEG lipid at various molar ratios as described in Formulation Example 1. Relative activity was determined by measuring luciferase expression in the mouse liver 4 hours following administration via tail vein injection.
Increasing concentration of compound I-5 reduced the overall expression of the reporter gene (firefly luciferase) in the liver (see, e.g., Table 4). Lipid nanoparticle systems that included compound I-5 at a concentration of 5 mol % reduced the amount of expression by ˜50% while lipid nanoparticle systems including compound I-5 at 10 mol % reduced to 20% of benchmark (lipid nanoparticle system with no compound I-5). […] However, 2.5 mol % compound I-5 changed the expression kinetic. […] Lipid nanoparticle systems with compound I-5 at a concentration of 2.5 mol % also provided a benefit of prolonged expression since at 16 hours the same system had ˜4-fold expression in comparison to the lipid nanoparticle system with no compound I-5.

In the case of `CCCCCCCCCCCCCCN(CCCCCCCCCCCCCC)C(=O)CCC(=O)OCCOCCOCCOC` [compound I-5], the “overall expression of the reporter gene (firefly luciferase) in the liver” value is reported as “reduced”.

— patent US20250161227A1, “PEGYLATED LIPIDS” (Acuitas Therapeutics, Inc., priority 2023, published 2025)
